Data reported in US20250276962A1, “CONTRACEPTIVE COMPOUNDS AND METHODS” (Regents of the University of Minnesota, priority 2021, published 2025).
Entries after “also recorded” stand apart in the source; their conditions may differ. Where two headings read alike, the source gives them in different places.

Tests used:
[1] = target: KVLQT(7.1)/mink (cardiac potassium ion channel) (Homo sapiens, UniProt P51787); experiment: Off-target screening, KVLQT(7.1)/mink; type: cell-based
[2] = Stability in rat liver microsomes; type: in vitro ADME; settings: read-out: Half-life (T1/2) Liver microsomes (Phase I metabolism)
[3] = Stability in rabbit liver microsomes; type: in vitro ADME; settings: read-out: Half-life (T1/2) Liver microsomes (Phase I metabolism) (converted)
[4] = Stability in monkey hepatocytes; type: in vitro ADME; settings: read-out: Half-life (T1/2) Hepatocytes (Phase I and Phase II metabolism) (converted)
[5] = Repeat dose PK (14 days), dog; type: in vivo; settings: male, Beagle, plasma, oral, Day 14
Description: […]. In this study, AUC0-inf was measured.

48 potential off-targets = experiment: Off-target screening, agonist and antagonist activity against 48 potential off-targets; settings: 10 uM; against 39 of 48 targets (including glucocorticoid and androgen receptors)
[6] = target: acetylcholinesterase (AChE) (Homo sapiens, UniProt P22303); experiment: Off-target screening, AChE; type: biochemical
physchem = settings: pH 7.4
[7] = Stability in dog liver microsomes; type: in vitro ADME; settings: read-out: Half-life (T1/2) Liver microsomes (Phase I metabolism)
KCNQ1 = experiment: in vitro; type: cell-based
male Beagle dogs [8] = system: male Beagle dogs
[9] = Distribution assay, plasma levels after oral dosing; settings: CD-1 mice, 10 mg/kg oral
Description: Testes and brain were then harvested. Resulting plasma and tissue were frozen at <−20° C. until analysis by LC/MS/MS.

[10] = target: Kir2.1 (potassium channel of excitable cells) (Homo sapiens, UniProt P63252); experiment: Off-target screening, Kir2.1; type: cell-based
human liver fibroblast = type: cell-based
Text: The results were negative.

male Beagle dogs [11] = experiment: Testis histopathology after 14-day dosing, dog; type: in vivo; settings: daily doses for 14 days (25 mg/kg/day in FIG. 11)
Description: (§1) 2 male Beagle dogs and 5 male SD rats were dosed with 25 mg/kg/day for 14 days. On Day 15, animals were euthanized to harvest organs for histopathology. Shown are representative images. See Example 19.

[12] = target: NaV1.5 (cardiac sodium ion channel) (Homo sapiens, UniProt Q14524); experiment: Off-target screening, NaV1.5; type: cell-based
NaV1.5 = NaV1.5 (Homo sapiens, UniProt Q14524); experiment: Off-target screening, NaV1.5; type: cell-based; settings: 10 μM
Single dose PK, mouse = type: in vivo
Text: Single dose pharmacokinetics (PK) studies at therapeutic dose levels: Presented are area under the curve (AUC) values to better compare exposure levels between species.
[…]. […] This value serves as the basis to calculate multiples over efficacy across species.

[13] = Single dose toxicity, dog; settings: Beagle, in vivo, Maximum tolerated dose (MTD), Beagle dogs, highest dose level tested
male Sprague-Dawley rats = experiment: Testis histopathology after 14-day dosing, rat; type: in vivo; settings: male SD rats, daily doses for 14 days (25 mg/kg/day in FIG. 11)
Description: as §1

in vivo = settings: male, Sprague-Dawley, rat, oral
[14] = Single dose toxicity, rat; settings: Sprague-Dawley, in vivo, Maximum tolerated dose (MTD), Sprague-Dawley rats, highest dose level tested

Kir2.1 (potassium channel of excitable cells), sequence (P63252 whole entry): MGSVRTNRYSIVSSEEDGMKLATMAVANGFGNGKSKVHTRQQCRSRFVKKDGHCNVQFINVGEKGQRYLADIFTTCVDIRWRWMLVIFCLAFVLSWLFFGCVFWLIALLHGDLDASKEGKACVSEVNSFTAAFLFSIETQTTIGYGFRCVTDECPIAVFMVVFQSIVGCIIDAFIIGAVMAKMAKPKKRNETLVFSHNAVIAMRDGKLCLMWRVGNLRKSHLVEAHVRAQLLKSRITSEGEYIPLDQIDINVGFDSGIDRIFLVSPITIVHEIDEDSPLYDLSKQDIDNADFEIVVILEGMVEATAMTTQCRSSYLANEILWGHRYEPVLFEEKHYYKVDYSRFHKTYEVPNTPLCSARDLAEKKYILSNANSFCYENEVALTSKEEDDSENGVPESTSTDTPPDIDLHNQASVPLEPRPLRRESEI
acetylcholinesterase (AChE), sequence (P22303 32-614, species assumed): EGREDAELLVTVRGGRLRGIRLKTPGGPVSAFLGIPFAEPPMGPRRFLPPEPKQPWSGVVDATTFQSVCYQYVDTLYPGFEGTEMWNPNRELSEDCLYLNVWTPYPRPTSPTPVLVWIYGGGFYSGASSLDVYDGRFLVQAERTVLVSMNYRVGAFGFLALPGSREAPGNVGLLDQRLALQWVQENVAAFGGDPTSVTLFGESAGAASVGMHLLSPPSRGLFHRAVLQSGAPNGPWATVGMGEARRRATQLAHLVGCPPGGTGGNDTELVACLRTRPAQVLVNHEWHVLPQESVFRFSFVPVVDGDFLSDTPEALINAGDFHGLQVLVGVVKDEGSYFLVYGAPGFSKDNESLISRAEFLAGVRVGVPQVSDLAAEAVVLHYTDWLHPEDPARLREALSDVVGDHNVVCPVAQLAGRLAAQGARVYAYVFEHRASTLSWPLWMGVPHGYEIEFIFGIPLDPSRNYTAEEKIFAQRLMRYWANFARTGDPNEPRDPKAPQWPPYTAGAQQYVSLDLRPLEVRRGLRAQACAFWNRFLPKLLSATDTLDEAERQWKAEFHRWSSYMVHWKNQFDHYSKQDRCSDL
KVLQT(7.1)/mink (cardiac potassium ion channel), sequence (P51787 whole entry): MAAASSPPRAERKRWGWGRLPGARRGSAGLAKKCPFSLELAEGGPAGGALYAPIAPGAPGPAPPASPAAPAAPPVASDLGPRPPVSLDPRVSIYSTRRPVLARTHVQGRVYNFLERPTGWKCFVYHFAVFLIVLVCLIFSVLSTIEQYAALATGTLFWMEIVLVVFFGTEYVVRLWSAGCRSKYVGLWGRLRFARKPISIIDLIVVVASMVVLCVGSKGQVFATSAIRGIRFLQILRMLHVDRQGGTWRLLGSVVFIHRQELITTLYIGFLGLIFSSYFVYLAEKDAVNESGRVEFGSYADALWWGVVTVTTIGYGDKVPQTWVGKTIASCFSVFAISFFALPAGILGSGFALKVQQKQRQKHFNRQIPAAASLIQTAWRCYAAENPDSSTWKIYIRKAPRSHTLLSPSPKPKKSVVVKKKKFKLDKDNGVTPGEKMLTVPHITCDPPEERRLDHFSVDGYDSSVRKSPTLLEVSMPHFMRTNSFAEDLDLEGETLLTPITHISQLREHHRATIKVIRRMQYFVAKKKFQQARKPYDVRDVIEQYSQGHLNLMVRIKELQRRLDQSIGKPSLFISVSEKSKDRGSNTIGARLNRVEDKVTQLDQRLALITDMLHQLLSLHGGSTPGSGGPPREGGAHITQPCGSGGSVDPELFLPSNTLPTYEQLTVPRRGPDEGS
NaV1.5, sequence (Q14524 whole entry): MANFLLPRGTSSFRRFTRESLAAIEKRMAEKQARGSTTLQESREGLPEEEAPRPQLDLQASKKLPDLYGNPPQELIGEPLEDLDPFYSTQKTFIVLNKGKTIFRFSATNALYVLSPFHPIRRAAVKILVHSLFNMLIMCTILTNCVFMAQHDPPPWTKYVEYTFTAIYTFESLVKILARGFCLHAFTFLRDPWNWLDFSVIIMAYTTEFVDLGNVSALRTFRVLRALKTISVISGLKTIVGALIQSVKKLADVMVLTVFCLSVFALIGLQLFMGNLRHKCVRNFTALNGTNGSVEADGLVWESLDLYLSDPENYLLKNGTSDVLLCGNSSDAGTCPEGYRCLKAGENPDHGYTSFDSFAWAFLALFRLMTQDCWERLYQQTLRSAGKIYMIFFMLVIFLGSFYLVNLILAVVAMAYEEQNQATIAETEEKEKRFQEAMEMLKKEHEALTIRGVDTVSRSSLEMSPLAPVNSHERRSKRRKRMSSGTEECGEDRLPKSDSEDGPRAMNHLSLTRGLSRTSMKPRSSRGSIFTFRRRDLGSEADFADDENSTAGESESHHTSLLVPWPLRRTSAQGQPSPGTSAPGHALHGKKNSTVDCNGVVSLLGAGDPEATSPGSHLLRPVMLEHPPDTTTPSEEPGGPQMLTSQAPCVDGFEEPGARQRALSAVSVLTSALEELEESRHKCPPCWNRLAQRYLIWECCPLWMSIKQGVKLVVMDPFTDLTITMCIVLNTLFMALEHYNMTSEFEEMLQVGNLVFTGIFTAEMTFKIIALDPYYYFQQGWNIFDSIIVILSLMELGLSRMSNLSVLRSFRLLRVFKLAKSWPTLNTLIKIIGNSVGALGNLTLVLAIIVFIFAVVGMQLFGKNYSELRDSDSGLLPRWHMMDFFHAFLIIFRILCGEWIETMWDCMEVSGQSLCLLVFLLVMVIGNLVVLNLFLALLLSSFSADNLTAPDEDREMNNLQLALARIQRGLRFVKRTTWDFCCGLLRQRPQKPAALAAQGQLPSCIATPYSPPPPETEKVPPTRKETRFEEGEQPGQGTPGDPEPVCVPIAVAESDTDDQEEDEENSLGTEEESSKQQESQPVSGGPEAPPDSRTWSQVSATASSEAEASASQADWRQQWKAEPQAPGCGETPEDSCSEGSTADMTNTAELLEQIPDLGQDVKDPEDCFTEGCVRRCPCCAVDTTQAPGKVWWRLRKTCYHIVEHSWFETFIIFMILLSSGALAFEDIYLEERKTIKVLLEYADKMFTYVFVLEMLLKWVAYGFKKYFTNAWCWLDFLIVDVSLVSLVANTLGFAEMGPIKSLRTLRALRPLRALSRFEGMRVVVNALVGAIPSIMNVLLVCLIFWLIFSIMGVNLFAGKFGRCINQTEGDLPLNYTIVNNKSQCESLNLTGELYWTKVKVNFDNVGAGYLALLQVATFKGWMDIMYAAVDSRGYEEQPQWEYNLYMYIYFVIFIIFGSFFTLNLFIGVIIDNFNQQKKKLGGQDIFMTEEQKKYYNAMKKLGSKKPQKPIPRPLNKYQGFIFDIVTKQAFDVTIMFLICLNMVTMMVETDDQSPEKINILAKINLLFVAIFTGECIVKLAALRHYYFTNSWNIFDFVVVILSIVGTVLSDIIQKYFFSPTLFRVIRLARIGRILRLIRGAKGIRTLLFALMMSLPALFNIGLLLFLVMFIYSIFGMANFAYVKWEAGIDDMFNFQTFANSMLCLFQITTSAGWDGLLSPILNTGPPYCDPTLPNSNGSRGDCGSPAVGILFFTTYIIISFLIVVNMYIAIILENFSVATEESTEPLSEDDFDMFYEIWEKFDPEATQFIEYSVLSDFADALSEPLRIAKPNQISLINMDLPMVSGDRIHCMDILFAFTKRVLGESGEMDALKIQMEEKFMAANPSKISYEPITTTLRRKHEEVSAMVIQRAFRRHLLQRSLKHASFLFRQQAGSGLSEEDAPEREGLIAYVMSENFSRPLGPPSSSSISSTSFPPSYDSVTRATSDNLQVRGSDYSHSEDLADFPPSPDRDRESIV

With `Cc1ccc(C2=CC(C)(C)Oc3ccc(-c4ccc(-c5ccc(C(=O)[O-])cc5)[nH]4)cc32)cc1.[Na+]` [Example 1, Sodium 4-(5-(2,2-dimethyl-4-(p-tolyl)-2H-chromen-6-yl)-1H-pyrrol-2-yl)benzoate] the inhibition at 10 µM [1] was 14.9%, the half-life [2] was greater than 23.1 h and the half-life [3] was 19.6 h. The “HepG2 cytotoxicity assay result” value (HepG2) was “negative”, the “HepG2 cytotoxicity assay result” value (HepG2; human) was “The compound of Example 1 showed no cytopathic effects in HepG2 and human” and the half-life [4] was 3.2 h. The AUC(0-inf) ([5]; Dog 25 mg/kg/day) was 752 µg·h/mL, the AUC(0-inf) ([5]; Dog 100 mg/kg/day) was 14100 µg·h/mL and the “Agonist or antagonist activity against off-targets” value (48 potential off-targets) was “Example 1 had agonist or antagonist activity of <10% against 39 of them (including”. It also gave an IC50 [6] greater than 30 µM, an inhibition at 10 µM ([6]; 10 μM) of 10.2% and a logD (physchem) of 3.5. The half-life [7] was greater than 23.1 h, the inhibition at 10 µM (KCNQ1) was 22.8% and the Tolerability (male Beagle dogs [8]; dog, in vivo, 50 mg/kg/day) was “not tolerated”. For the same compound, the Tolerability (male Beagle dogs [8]; dog, in vivo, 100 mg/kg/day) was “one dog did not show any signs of toxicity”, the Tolerability (male Beagle dogs [8]; dog, in vivo, po, 25 mg/kg/day) was “tolerated well” and the “Tolerated dose on repeated dosing for 14 days” value (male Beagle dogs [8]; dogs) was 25 mg/kg. The Tolerability (male Beagle dogs [8]; male, Beagle, dog, in vivo, 100 mg/kg/day, 14 days) was “The other dog lost weight as of Day 12 until termination”, the Safety margin (male Beagle dogs [8]; male, Beagle, dog, in vivo, 14 days) was “at least 10 ×” and the “Plasma level at 48 hours” value [9] was 12.9 nM. For the same compound, the IC50 [10] was greater than 10 µM, the inhibition at 10 µM ([10]; read-out: Inhibition of Kir2.1) was 13.2% and the “Human liver (lung) fibroblast assay result” value (human liver fibroblast) was “negative”. For the same compound, the “Human liver (lung) fibroblast assay result” value (human liver fibroblast; human) was “The compound of Example 1 showed no cytopathic effects in HepG2 and human”, the Testis histopathology (male Beagle dogs [11]) was “degeneration of the germinal epithelium; also recorded: visible in all evaluated tubuli seminiferi contorti; also recorded: impairs the germinal epithelium” and the “Half-life (T1/2) Hepatocytes (Phase I and Phase II metabolism)” value (human) was 8.7 h. For the same compound, the “In vitro Clint (μL/min/10^6 cells)” value (human hepatocytes) was 2.65 μL/min/10^6 cells, the “In vitro T1/2” value (human hepatocytes) was 8.706 h and the IC50 [12] was 8.8 µM. The inhibition at 10 µM (NaV1.5) was 37.4%, the AUC0-inf in plasma (Single dose PK, mouse; male CD-1 mice, single 10 mg/kg dose) was 6,681 h*(ng/mL) and the AUC(0-inf) (Single dose PK, mouse; male, CD-1, plasma, Mouse 10 mg/kg, single dose) was 6.68 µg·h/mL. The AUC(0-t) (Single dose PK, mouse; male, CD-1, plasma, Mouse 10 mg/kg, read-out: AUC0-48) was 6.58 µg·h/mL, the MTD [13] was greater than 500 mg/kg and the Testis histopathology (male Sprague-Dawley rats) was “degeneration of the germinal epithelium; also recorded: impairs the germinal epithelium”. The MTD at 2 weeks (in vivo) was 50 mg/kg and the MTD [14] was 750 mg/kg.
